Experimental data reported in patent US20240318150A1, “METHODS FOR OXYFUNCTIONALIZATION OF VARIOUS SUBSTRATES USING BACTERIAL ENZYMES” (GECCO Biotech B.V., priority 2021, published 2024).

System: T3G1
Test: Substrate conversion (oxyfunctionalization) by purified enzyme T3G1 with H2O2
Type: biochemical, Proteobacteria bacterium
Details: 1 mM substrate; for % conversion: 2 mM H2O2 (1 mM at start, to 2 mM after 90 min), 7 μM enzyme T3G1 (5 + 2 μM)
Text: This prompted us to test the representative enzyme T3G1 against a large panel of various substrates.

Compound	% conversion	other results
CC(C)NCC(O)COc1cccc2ccccc12 (centres unmarked) [propanolol, reference compound]	5%	–
C(=C\c1ccccc1)/c1ccccc1 [trans-stilbene]	17%	–
CC(=O)/C=C/C1=C(C)CCCC1(C)C [trans-β-ionone]	48%	–
CC/C=C/CC [trans-3-hexene]	40%	–
CCC/C=C/CCC [trans-4-octene]	99%	–
C=CCCCCC [Substrate 1-heptene, 1-heptene]	trace	–
C=CC(=C)C [2-methyl-1,3-butadiene]	trace	–
C1=Cc2ccccc2C1 [indene]	27%	–
C/C=C/CCC [trans-2-hexene]	trace	–
C=CCCCC [Substrate 1-hexene, 1-hexene]	trace	–
C=C(C)[C@@H]1CCC2=CCC[C@@H](C)[C@]2(C)C1 [valencene]	3%	–
COc1cc(C)ccc1O [creosol]	trace	–
CC(=O)/C=C/C1C(C)=CCCC1(C)C (stereo not drawn) [α-ionone]	61%	–
C=CCCCCCC [Substrate 1-octene, 1-octene]	65%	–
(−)-carveol	4%	–
C=CCCCCCCCC [Substrate 1-decene, 1-decene]	13%	–
CCc1ccccc1 [ethylbenzene]	trace	–
C=CCCCCCCC=C [1,9-decadiene]	15%	% double epoxide (2 mM H2O2, 7 μM T3G1): 13 % double epoxide
C=C(C)CC [2-methyl-1-butene]	trace	–

Compound	% conversion	other results
C=C(C)C1CC=C(C)CC1 (single isomer, unassigned; (+)) [(+)-limonene]	81%	% cis (of product, printed beside % conversion) (2 mM H2O2, 7 μM T3G1): (97.3% cis)
C[C@]12CCC(=O)C=C1CCC2=O [(S)-Hajos-Wiechert ketone]	trace	–
CC=Cc1ccccc1 [β-methyl-styrene]	86%	–
C/C=C/CCCCC [trans-2-octene]	99%	–
CCCCCCCC/C=C\CCCCCCCC(=O)O [oleic acid]	19%	–
C1=CCCCC1 [cyclohexene]	32%	–
C/C=C\CCCC [cis-2-heptene]	81%	–
CC(=O)CCC1C(C)=CCCC1(C)C (stereo not drawn) [7,8-dihydro-α-ionone]	50%	–
C=Cc1ccccc1 [styrene]	61%	% ee (printed beside % conversion) (2 mM H2O2, 7 μM T3G1): (17% ee)
C/C=C/C(=O)C1C(C)C=CCC1(C)C (centres unmarked) [δ-damascone]	16%	–
C1=C\CCCCCC/1 [cis-cyclooctene]	83%	–
terpinene	73%	–
CC/C=C/CCCC [trans-3-octene]	99%	–
C/C=C\C(=O)C1C(C)=CCCC1(C)C (stereo not drawn) [α-damascone]	26%	–
C/C=C\CCC [cis-2-hexene]	trace	–
CSc1ccccc1 [thioanisole]	40%	% ee (printed beside % conversion) (2 mM H2O2, 7 μM T3G1): (74% ee)
CC12CCC(=O)C=C1CCCC2=O (centres unmarked) [Wieland-miescher ketone]	10%	–
CC1=CCCC(C)(C)C1/C=C/C(C)O (stereo not drawn) [α-ionol]	61%	–
